Experimental data: the supplement of paper PMC8967900
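Note: ALL cell lines in 384-well plates, five doses spanning 10,000-fold, each plate scaled between vehicle and 100 µmol/L benzalkonium chloride controls, sDSS an adapted area-under-curve metric.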

The compounds below were run on COG-LL-402h (assay: selective drug sensitivity score (sDSS, relative to normal bone marrow) (sDSS (score)); higher = more potent and effective on the cell line relative to normal bone marrow cells). Conditions: 72 h.
In the case of `C1=N/C2=N/c3ccc(OCCN4CCCC4)c(c3)COC/C=C/COCc3cccc(c3)C(=C1)N2` [Pacritinib] (top concentration 10000 nM), the “selective drug sensitivity score” value is reported as 2.9. For `Cc1[nH]c2ccccc2c1CCNCc1ccc(/C=C/C(=O)NO)cc1` [Panobinostat] (top concentration 1000 nM), the “selective drug sensitivity score” value was 14.6. With `Cc1ccc(Nc2nccc(N(C)c3ccc4c(C)n(C)nc4c3)n2)cc1S(N)(=O)=O` [Pazopanib] (top concentration 10000 nM) the “selective drug sensitivity score” value was -1.26. `Nc1nc2[nH]cc(CCc3ccc(C(=O)N[C@@H](CCC(=O)O)C(=O)O)cc3)c2c(=O)[nH]1` [Pemetrexed] (top concentration 10000 nM) was tested, and the “selective drug sensitivity score” value was 7.98. `Cc1ccc(C(=O)Nc2ccc(CN3CCN(C)CC3)c(C(F)(F)F)c2)cc1C#Cc1cnc2cccnn12` [Ponatinib] (top concentration 1000 nM) was tested, and the “selective drug sensitivity score” value was 10.2. With `C[C@]12C=CC(=O)C=C1CC[C@@H]1[C@@H]2[C@@H](O)C[C@@]2(C)[C@H]1CC[C@]2(O)C(=O)CO` [Prednisolone] (top concentration 10000 nM) the “selective drug sensitivity score” value was 16.9. `CC(C)(C)c1cc(NC(=O)Nc2ccc(-c3cn4c(n3)sc3cc(OCCN5CCOCC5)ccc34)cc2)no1` [Quizartinib] (top concentration 1000 nM) was tested, and the “selective drug sensitivity score” value was -1.52. In the case of `Nc1cc(F)ccc1NC(=O)/C=C/c1cnn(C/C=C/c2ccccc2)c1` [RGFP966] (top concentration 10000 nM), the “selective drug sensitivity score” value is reported as 6.84. In the case of `CNC(=O)c1cc(Oc2ccc(NC(=O)Nc3ccc(Cl)c(C(F)(F)F)c3)c(F)c2)ccn1` [Regorafenib] (top concentration 10000 nM), the “selective drug sensitivity score” value is reported as 1.24.

Each compound was assayed on MHH-CALL-3 in the same assay as above. Conditions: 72 h.
In the case of `C1=N/C2=N/c3ccc(OCCN4CCCC4)c(c3)COC/C=C/COCc3cccc(c3)C(=C1)N2` [Pacritinib] (top concentration 10000 nM), the “selective drug sensitivity score” value is reported as -7.7. With `Cc1[nH]c2ccccc2c1CCNCc1ccc(/C=C/C(=O)NO)cc1` [Panobinostat] (top concentration 1000 nM) the “selective drug sensitivity score” value was 15.6. In the case of `Cc1ccc(Nc2nccc(N(C)c3ccc4c(C)n(C)nc4c3)n2)cc1S(N)(=O)=O` [Pazopanib] (top concentration 10000 nM), the “selective drug sensitivity score” value is reported as -1.26. In the case of `Nc1nc2[nH]cc(CCc3ccc(C(=O)N[C@@H](CCC(=O)O)C(=O)O)cc3)c2c(=O)[nH]1` [Pemetrexed] (top concentration 10000 nM), the “selective drug sensitivity score” value is reported as 13.5. In the case of `Cc1ccc(C(=O)Nc2ccc(CN3CCN(C)CC3)c(C(F)(F)F)c2)cc1C#Cc1cnc2cccnn12` [Ponatinib] (top concentration 1000 nM), the “selective drug sensitivity score” value is reported as 10.7. In the case of `C[C@]12C=CC(=O)C=C1CC[C@@H]1[C@@H]2[C@@H](O)C[C@@]2(C)[C@H]1CC[C@]2(O)C(=O)CO` [Prednisolone] (top concentration 10000 nM), the “selective drug sensitivity score” value is reported as 26.7. With `CC(C)(C)c1cc(NC(=O)Nc2ccc(-c3cn4c(n3)sc3cc(OCCN5CCOCC5)ccc34)cc2)no1` [Quizartinib] (top concentration 1000 nM) the “selective drug sensitivity score” value was -1.52. `Nc1cc(F)ccc1NC(=O)/C=C/c1cnn(C/C=C/c2ccccc2)c1` [RGFP966] (top concentration 10000 nM) was tested, and the “selective drug sensitivity score” value was 12.3. With `CNC(=O)c1cc(Oc2ccc(NC(=O)Nc3ccc(Cl)c(C(F)(F)F)c3)c(F)c2)ccn1` [Regorafenib] (top concentration 10000 nM) the “selective drug sensitivity score” value was -1.56.

Each compound was assayed on COG-LL-355h in the same assay as above. Conditions: 72 h.
`C1=N/C2=N/c3ccc(OCCN4CCCC4)c(c3)COC/C=C/COCc3cccc(c3)C(=C1)N2` [Pacritinib] (top concentration 10000 nM) was tested, and the “selective drug sensitivity score” value was 2.9. For `Cc1[nH]c2ccccc2c1CCNCc1ccc(/C=C/C(=O)NO)cc1` [Panobinostat] (top concentration 1000 nM), the “selective drug sensitivity score” value was 4.84. With `Cc1ccc(Nc2nccc(N(C)c3ccc4c(C)n(C)nc4c3)n2)cc1S(N)(=O)=O` [Pazopanib] (top concentration 10000 nM) the “selective drug sensitivity score” value was -1.26. With `Nc1nc2[nH]cc(CCc3ccc(C(=O)N[C@@H](CCC(=O)O)C(=O)O)cc3)c2c(=O)[nH]1` [Pemetrexed] (top concentration 10000 nM) the “selective drug sensitivity score” value was 4.28. For `Cc1ccc(C(=O)Nc2ccc(CN3CCN(C)CC3)c(C(F)(F)F)c2)cc1C#Cc1cnc2cccnn12` [Ponatinib] (top concentration 1000 nM), the “selective drug sensitivity score” value was 5.52. For `C[C@]12C=CC(=O)C=C1CC[C@@H]1[C@@H]2[C@@H](O)C[C@@]2(C)[C@H]1CC[C@]2(O)C(=O)CO` [Prednisolone] (top concentration 10000 nM), the “selective drug sensitivity score” value was 20.6. With `CC(C)(C)c1cc(NC(=O)Nc2ccc(-c3cn4c(n3)sc3cc(OCCN5CCOCC5)ccc34)cc2)no1` [Quizartinib] (top concentration 1000 nM) the “selective drug sensitivity score” value was -1.02. With `Nc1cc(F)ccc1NC(=O)/C=C/c1cnn(C/C=C/c2ccccc2)c1` [RGFP966] (top concentration 10000 nM) the “selective drug sensitivity score” value was 4.84. In the case of `CNC(=O)c1cc(Oc2ccc(NC(=O)Nc3ccc(Cl)c(C(F)(F)F)c3)c(F)c2)ccn1` [Regorafenib] (top concentration 10000 nM), the “selective drug sensitivity score” value is reported as 6.74.

These compounds were tested on SEM cells in the same assay as above. Conditions: 72 h.
`C1=N/C2=N/c3ccc(OCCN4CCCC4)c(c3)COC/C=C/COCc3cccc(c3)C(=C1)N2` [Pacritinib] (top concentration 10000 nM) was tested, and the “selective drug sensitivity score” value was 1.5. In the case of `Cc1[nH]c2ccccc2c1CCNCc1ccc(/C=C/C(=O)NO)cc1` [Panobinostat] (top concentration 1000 nM), the “selective drug sensitivity score” value is reported as 3.94. For `Cc1ccc(Nc2nccc(N(C)c3ccc4c(C)n(C)nc4c3)n2)cc1S(N)(=O)=O` [Pazopanib] (top concentration 10000 nM), the “selective drug sensitivity score” value was 4.54. `Nc1nc2[nH]cc(CCc3ccc(C(=O)N[C@@H](CCC(=O)O)C(=O)O)cc3)c2c(=O)[nH]1` [Pemetrexed] (top concentration 10000 nM) was tested, and the “selective drug sensitivity score” value was 25.6. With `Cc1ccc(C(=O)Nc2ccc(CN3CCN(C)CC3)c(C(F)(F)F)c2)cc1C#Cc1cnc2cccnn12` [Ponatinib] (top concentration 1000 nM) the “selective drug sensitivity score” value was 19.4. In the case of `C[C@]12C=CC(=O)C=C1CC[C@@H]1[C@@H]2[C@@H](O)C[C@@]2(C)[C@H]1CC[C@]2(O)C(=O)CO` [Prednisolone] (top concentration 10000 nM), the “selective drug sensitivity score” value is reported as 2.9. In the case of `CC(C)(C)c1cc(NC(=O)Nc2ccc(-c3cn4c(n3)sc3cc(OCCN5CCOCC5)ccc34)cc2)no1` [Quizartinib] (top concentration 1000 nM), the “selective drug sensitivity score” value is reported as 20.7. `Nc1cc(F)ccc1NC(=O)/C=C/c1cnn(C/C=C/c2ccccc2)c1` [RGFP966] (top concentration 10000 nM) was tested, and the “selective drug sensitivity score” value was 18.7. For `CNC(=O)c1cc(Oc2ccc(NC(=O)Nc3ccc(Cl)c(C(F)(F)F)c3)c(F)c2)ccn1` [Regorafenib] (top concentration 10000 nM), the “selective drug sensitivity score” value was 10.

These compounds were tested on KARPAS-45 in the same assay as above. Conditions: 72 h.
With `C1=N/C2=N/c3ccc(OCCN4CCCC4)c(c3)COC/C=C/COCc3cccc(c3)C(=C1)N2` [Pacritinib] (top concentration 10000 nM) the “selective drug sensitivity score” value was -2.9. In the case of `Cc1[nH]c2ccccc2c1CCNCc1ccc(/C=C/C(=O)NO)cc1` [Panobinostat] (top concentration 1000 nM), the “selective drug sensitivity score” value is reported as 10.7. `Cc1ccc(Nc2nccc(N(C)c3ccc4c(C)n(C)nc4c3)n2)cc1S(N)(=O)=O` [Pazopanib] (top concentration 10000 nM) was tested, and the “selective drug sensitivity score” value was 1.74. For `Nc1nc2[nH]cc(CCc3ccc(C(=O)N[C@@H](CCC(=O)O)C(=O)O)cc3)c2c(=O)[nH]1` [Pemetrexed] (top concentration 10000 nM), the “selective drug sensitivity score” value was 9.98. With `Cc1ccc(C(=O)Nc2ccc(CN3CCN(C)CC3)c(C(F)(F)F)c2)cc1C#Cc1cnc2cccnn12` [Ponatinib] (top concentration 1000 nM) the “selective drug sensitivity score” value was 5.02. For `C[C@]12C=CC(=O)C=C1CC[C@@H]1[C@@H]2[C@@H](O)C[C@@]2(C)[C@H]1CC[C@]2(O)C(=O)CO` [Prednisolone] (top concentration 10000 nM), the “selective drug sensitivity score” value was 12.3. In the case of `CC(C)(C)c1cc(NC(=O)Nc2ccc(-c3cn4c(n3)sc3cc(OCCN5CCOCC5)ccc34)cc2)no1` [Quizartinib] (top concentration 1000 nM), the “selective drug sensitivity score” value is reported as 3.68. `Nc1cc(F)ccc1NC(=O)/C=C/c1cnn(C/C=C/c2ccccc2)c1` [RGFP966] (top concentration 10000 nM) was tested, and the “selective drug sensitivity score” value was 14.6. For `CNC(=O)c1cc(Oc2ccc(NC(=O)Nc3ccc(Cl)c(C(F)(F)F)c3)c(F)c2)ccn1` [Regorafenib] (top concentration 10000 nM), the “selective drug sensitivity score” value was 3.44.
